5 compounds from patent publication US20240059688A1, “CONOLIDINE ANALOGUES AS SELECTIVE ACKR3 MODULATORS FOR THE TREATMENT OF CANCER” (Luxembourg Institute of Health (LIH), priority 2020, published 2024) can be followed below.

Some results are limits rather than exact numbers.

Assay type in all cases: cell-based
The target in one assay is ACKR3 (Homo sapiens, UniProt P25106). The assay is described as follows: ACKR3 β-arrestin recruitment assay (PathHunter, β-galactosidase complementation). As to conditions: for Emax: read-out: ACKR3 β-arrestin % CXCL12 Emax ± SEM; for EC50: stable human ACKR3-β-arrestin-2-CHO cells, mean ± SEM, at least two independent experiments in duplicate. Summed up: (§1)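 Agonist mode in PathHunter CHO cells expressing human ACKR3-β-arrestin-2, compounds added in DPBS/1% DMSO for 1.5 hr at 37° C, then detection 1 hr at room temperature, luminescence read. CXCR4 run in C2C12 cells with a 3 hr Cell Plating Reagent 4 preincubation. EC50 and % Emax from three-parameter fits, CXCL-12 as reference agonist; ≥2 independent experiments in duplicate.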
ACKR3, sequence (P25106 whole entry): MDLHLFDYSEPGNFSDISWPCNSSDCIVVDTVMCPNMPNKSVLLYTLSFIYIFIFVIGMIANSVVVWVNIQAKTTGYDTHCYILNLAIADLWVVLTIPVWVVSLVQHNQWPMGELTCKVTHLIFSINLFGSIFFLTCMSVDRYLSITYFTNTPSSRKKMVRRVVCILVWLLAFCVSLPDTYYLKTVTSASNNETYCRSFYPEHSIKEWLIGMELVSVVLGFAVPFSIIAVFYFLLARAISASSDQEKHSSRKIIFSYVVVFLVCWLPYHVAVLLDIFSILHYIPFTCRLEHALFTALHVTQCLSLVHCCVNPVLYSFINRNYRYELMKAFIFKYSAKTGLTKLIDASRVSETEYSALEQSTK
In general terms: Activated receptors often draw arrestin, which recruitment assays turn into a signal.

The next assay concerns the target KOR (Homo sapiens, UniProt P41145). The assay is described as follows: KOR calcium mobilization agonist/antagonist screen (CHO-RD-HGA16 cells). Also on record: host or cells: CHO-RD-HGA16. As to conditions: single concentration; for Emax: CHO-RD-HGA16, agonist screen, control agonist U69,593; for KOR Calcium % U69, 593 Inhibition: antagonist screen, vs EC60 of U69,593. How it is done: (§2) Compounds were evaluated for kappa (KOR), mu (MOR), and delta (DOR) opioid receptor agonist and antagonist activity in three individual cell lines overexpressing Gαq16 (CHO-RD-HGA16, Molecular Devices) and the human kappa, mu, and delta opioid receptors, respectively. The day before the assay, cells were plated into 96-well black-walled assay plates at 30,000 cells/well in Ham's F12 supplemented with 10% fetal bovine serum, and 100 units of penicillin and streptomycin. The cells were incubated overnight at 37° C., 5% CO2. Prior to the assay, Calcium 5 dye (Molecular Devices) was reconstituted according to the manufacturer's instructions. The reconstituted dye was diluted 1:40 in pre-warmed (37° C.) assay buffer (1×HBSS, 20 mM HEPES, 2.5 mM probenecid, pH 7.4 at 37° C.). Growth medium was removed and the cells were gently washed with 100 μL of pre-warmed (37° C.) assay buffer. The cells were incubated for 45 minutes at 37° C., 5% CO2 in 200 μL of the diluted Calcium 5 dye. For the agonist screen, a single concentration of each test compound and receptor-specific controls (U69,593, DAMGO, and DPDPE for KOR, MOR, and DOR, respectively) were prepared at 10× the desired final concentration in 1% DMSO/assay buffer, aliquoted into a 96-well polystyrene plate, and warmed to 37° C. After the dye-loading incubation period, pretreatment solution was added to each well (25 μL of 9% DMSO/assay buffer) and, after 15 min, the plate was read with a FlexStation II (Molecular Devices). Calcium-mediated changes in fluorescence were monitored every 1.52 seconds over a 60 second time period, with the FlexStation II adding 50 μL of test compounds at the 19 second time point (excitation at 485 nm, detection at 525 nm). Peak kinetic reduction (SoftMax, Molecular Devices) relative fluorescence units (RFU) were used to calculate % control agonist Emax with the equation % Emax=(test compound RFU/control agonist RFU)×100. For the antagonist screens, the same procedure was followed except that the pretreatment solution consisted of the test compounds (prepared at […] the desired final concentration in 9% DMSO/assay buffer) and the FlexStation added the EC60 concentration (prepared at 10× the desired final concentration in 1% DMSO/assay buffer) of each respective control agonist. Peak RFU were used to calculate % control EC60 inhibition with the equation % inhibition=((EC60 RFU−test compound RFU)/EC60 RFU)×100. When IC50 determinations were made, the same antagonist screen procedure was followed except that cells were pretreated with 8-pt concentration-response curves of the test compounds. Peak RFU were plotted against the log of compound concentration using non-linear regression analysis to generate IC50 values (GraphPad Prism). Each test sample was analyzed in duplicate in two independent experiments.
For orientation: A change in cytosolic calcium serves as a functional read-out for many receptors and channels.

The target of a further assay is T1, human CXCR4 (Homo sapiens, UniProt P61073).
T1 construct: host or cells: C2C12
T1 sequence (P61073 whole entry): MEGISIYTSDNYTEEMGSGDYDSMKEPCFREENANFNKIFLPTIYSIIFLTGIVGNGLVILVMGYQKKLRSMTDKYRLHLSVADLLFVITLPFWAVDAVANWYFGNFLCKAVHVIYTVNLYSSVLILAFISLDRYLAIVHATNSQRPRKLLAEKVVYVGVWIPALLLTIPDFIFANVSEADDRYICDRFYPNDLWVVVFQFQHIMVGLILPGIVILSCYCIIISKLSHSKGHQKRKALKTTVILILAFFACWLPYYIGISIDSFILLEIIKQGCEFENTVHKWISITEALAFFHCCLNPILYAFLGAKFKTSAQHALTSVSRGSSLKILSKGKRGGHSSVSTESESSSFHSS
Nature of the assay: CXCR4 β-arrestin recruitment assay (PathHunter). To be noted: human CXCR4-C2Cl2 cells, relative to CXCL-12. Summed up:
as §1

In a further assay the target is MOR (Homo sapiens, UniProt P35372). The assay is described as follows: MOR calcium mobilization agonist/antagonist screen (CHO-RD-HGA16 cells). Further details: host or cells: CHO-RD-HGA16. As to conditions: single concentration; for Emax: CHO-RD-HGA16, agonist screen, control agonist DAMGO; for MOR Calcium % DAMGO Inhibition: antagonist screen, vs EC60 of DAMGO. How it is done: as §2
MOR, sequence (P35372 whole entry): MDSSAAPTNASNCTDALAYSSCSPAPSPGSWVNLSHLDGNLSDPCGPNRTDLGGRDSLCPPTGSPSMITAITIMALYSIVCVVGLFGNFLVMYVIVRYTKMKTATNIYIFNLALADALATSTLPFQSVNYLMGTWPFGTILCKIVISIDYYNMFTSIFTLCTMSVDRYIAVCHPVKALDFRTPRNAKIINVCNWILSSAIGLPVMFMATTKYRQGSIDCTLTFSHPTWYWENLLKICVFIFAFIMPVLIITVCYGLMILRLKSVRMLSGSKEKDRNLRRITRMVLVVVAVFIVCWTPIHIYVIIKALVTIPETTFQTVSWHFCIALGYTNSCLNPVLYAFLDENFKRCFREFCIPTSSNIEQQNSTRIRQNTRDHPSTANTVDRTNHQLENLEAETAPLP

Another assay has as its target T2, CaV 3.2 (Homo sapiens, UniProt O95180).
T2 construct: expressed in transfected cells
The assay is described as follows: CaV 3.2 calcium assay in stable human CaV3.2-HEK293 cells. To be noted: control agonist calcium chloride. How it is done:
as §2
Compounds were evaluated for activity at CaV 3.2 using stable human CaV3.2-HEK293 cells and the control agonist calcium chloride. The day before the assay, cells were plated into 96-well black-walled assay plates coated with poly-D-lysine in DMEM-F12 supplemented with 10% fetal bovine serum, 100 units penicillin/streptomycin, and 500 μM sodium pyruvate, and incubated at 37° C., 5% CO2 overnight. Prior to the assay, Calcium 5 dye (Molecular Devices) was reconstituted according to the manufacturer instructions. The reconstituted dye was diluted 1:10 in pre-warmed (37° C.) assay buffer (1×HBSS, […], […], pH 7.4 at 37° C.). The cells were incubated for 45 minutes at 37° C., 5% CO2 in 200 μL of the diluted Calcium 5 dye. Compounds were prepared as described above and the plate was read with a FLIPR Tetra (Molecular Devices). Calcium-mediated changes in fluorescence were monitored every 1 second over a 60 second time period, with the Tetra adding 25 μL of appropriate compound at the 10 second time point (excitation at 470-495 nm, detection at 515-575 nm). […]

Another assay has as its target DOR (Homo sapiens, UniProt P41143). The assay is described as follows: DOR calcium mobilization agonist/antagonist screen (CHO-RD-HGA16 cells). Also on record: host or cells: CHO-RD-HGA16. To be noted: single concentration; for Emax: CHO-RD-HGA16, agonist screen, control agonist DPDPE; for DOR Calcium % DPDPE Inhibition: antagonist screen, vs EC60 of DPDPE. How it is done:
as §2

DOR, sequence (P41143 whole entry): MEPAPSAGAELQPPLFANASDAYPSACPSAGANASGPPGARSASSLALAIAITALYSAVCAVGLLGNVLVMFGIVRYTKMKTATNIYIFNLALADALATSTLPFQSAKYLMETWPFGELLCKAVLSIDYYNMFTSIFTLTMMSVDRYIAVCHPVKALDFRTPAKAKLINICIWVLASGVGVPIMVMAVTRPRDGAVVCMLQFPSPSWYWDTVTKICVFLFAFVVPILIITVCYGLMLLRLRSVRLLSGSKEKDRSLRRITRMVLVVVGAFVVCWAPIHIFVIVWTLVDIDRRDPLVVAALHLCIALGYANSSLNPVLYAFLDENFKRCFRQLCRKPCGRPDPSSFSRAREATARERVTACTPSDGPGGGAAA
T2 sequence (O95180 whole entry): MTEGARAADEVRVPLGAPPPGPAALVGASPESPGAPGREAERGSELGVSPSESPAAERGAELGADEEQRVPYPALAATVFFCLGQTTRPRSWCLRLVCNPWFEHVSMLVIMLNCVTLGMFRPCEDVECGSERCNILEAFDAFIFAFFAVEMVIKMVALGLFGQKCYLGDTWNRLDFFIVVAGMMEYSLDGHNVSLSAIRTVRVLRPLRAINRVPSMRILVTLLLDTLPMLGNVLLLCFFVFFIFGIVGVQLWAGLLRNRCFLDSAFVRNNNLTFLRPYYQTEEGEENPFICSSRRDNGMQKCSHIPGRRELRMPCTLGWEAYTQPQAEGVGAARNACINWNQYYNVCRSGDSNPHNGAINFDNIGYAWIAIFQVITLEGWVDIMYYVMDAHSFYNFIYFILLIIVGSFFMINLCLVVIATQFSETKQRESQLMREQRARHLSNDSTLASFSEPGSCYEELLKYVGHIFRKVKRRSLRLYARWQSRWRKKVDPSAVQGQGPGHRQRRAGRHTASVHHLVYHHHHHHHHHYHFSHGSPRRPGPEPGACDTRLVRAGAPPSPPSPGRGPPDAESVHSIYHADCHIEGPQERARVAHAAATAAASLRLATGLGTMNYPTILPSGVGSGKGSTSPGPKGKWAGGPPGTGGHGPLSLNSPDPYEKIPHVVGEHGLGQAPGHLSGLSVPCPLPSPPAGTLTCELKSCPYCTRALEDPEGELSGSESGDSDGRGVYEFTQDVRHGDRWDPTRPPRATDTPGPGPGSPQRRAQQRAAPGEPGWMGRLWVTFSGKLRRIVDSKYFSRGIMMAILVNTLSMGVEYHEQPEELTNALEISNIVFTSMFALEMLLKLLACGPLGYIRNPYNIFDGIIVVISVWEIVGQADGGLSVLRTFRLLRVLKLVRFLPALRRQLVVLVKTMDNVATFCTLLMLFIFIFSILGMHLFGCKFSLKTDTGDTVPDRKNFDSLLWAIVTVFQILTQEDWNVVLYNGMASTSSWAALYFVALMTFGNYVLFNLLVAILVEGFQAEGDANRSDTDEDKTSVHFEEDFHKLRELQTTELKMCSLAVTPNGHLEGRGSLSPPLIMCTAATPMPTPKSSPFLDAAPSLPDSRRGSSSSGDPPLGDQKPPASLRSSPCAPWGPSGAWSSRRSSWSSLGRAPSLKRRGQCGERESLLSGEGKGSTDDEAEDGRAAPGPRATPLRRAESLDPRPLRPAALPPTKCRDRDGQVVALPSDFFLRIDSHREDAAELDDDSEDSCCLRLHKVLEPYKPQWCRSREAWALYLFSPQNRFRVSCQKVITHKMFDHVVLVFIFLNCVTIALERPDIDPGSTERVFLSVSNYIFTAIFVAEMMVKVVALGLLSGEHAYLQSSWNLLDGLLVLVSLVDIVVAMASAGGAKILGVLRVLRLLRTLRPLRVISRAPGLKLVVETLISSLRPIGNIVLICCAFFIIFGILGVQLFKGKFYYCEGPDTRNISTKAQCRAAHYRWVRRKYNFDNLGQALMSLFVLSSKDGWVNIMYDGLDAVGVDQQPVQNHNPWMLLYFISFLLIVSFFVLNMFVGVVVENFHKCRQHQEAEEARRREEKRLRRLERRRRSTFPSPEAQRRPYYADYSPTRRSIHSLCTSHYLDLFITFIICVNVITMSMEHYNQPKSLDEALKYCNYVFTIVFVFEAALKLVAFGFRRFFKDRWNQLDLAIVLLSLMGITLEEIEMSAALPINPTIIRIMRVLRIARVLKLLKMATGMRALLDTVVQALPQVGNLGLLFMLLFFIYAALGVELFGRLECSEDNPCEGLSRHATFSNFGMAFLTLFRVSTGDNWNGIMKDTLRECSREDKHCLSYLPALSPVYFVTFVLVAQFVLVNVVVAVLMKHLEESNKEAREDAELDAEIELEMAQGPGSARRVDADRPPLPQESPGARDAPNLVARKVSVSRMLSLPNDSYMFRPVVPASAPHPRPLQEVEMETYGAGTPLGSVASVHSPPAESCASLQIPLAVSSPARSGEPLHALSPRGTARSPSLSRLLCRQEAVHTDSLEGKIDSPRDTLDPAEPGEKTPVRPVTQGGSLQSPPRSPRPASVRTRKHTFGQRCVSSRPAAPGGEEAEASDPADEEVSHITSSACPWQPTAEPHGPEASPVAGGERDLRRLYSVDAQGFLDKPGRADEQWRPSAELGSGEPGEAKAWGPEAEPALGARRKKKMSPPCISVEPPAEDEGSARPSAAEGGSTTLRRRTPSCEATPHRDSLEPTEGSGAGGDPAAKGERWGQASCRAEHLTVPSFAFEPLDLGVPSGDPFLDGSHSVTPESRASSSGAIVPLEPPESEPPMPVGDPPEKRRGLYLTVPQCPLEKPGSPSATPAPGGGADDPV
KOR, sequence (P41145 whole entry): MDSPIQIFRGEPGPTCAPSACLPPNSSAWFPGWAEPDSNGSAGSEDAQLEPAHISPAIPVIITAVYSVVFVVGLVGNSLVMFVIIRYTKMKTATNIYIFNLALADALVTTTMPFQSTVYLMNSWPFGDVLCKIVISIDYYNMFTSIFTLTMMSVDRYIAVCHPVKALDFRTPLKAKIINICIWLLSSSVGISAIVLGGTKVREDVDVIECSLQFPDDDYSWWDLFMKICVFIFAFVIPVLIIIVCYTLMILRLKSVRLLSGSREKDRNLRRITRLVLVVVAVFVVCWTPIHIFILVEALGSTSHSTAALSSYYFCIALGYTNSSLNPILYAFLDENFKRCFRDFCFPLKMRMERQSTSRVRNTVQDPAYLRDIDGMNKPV

In the case of `C/C=C1/CN(CCC)CC[C@H]1C(=O)c1cc2ccccc2[nH]1` [WW-14, [(3E,4R)-3-ethylidene-1-propylpiperidin-4-yl](1H-indol-2-yl)methanone], at ACKR3, the Emax is 84 ± 6% and the EC50 came to 3.28 ± 0.39 µM. On KOR, the Emax stood at 3% and the “KOR Calcium % U69, 593 Inhibition” value was found to be 6%. For the same compound, the “CXCR4 β-arrestin % CXCL-12Emax (n = 2)” value at human CXCR4 came out at 8%. For the same compound, at MOR, the Emax was 1% and the “MOR Calcium % DAMGO Inhibition” value is listed as 1%. Besides, the “CaV 3.2 % CaCl2 Inhibition” value on CaV 3.2 turned out to be 5%. At DOR, the Emax turned out to be 5% and the “DOR Calcium % DPDPE Inhibition” value was 0%.

As for `CCC1CN2CC[C@H]1C(=O)c1[nH]c3ccccc3c1C2` (stereo partly drawn) [WW-15, (5R)-4-ethyl-1,4,5,7-tetrahydro-2,5-ethanoazocino[4,3-b]indol-6(3H)-one], the EC50 at ACKR3 was more than 10 µM. On KOR, the Emax is 20% and the “KOR Calcium % U69, 593 Inhibition” value came out at 18%. For the same compound, at human CXCR4, the “CXCR4 β-arrestin % CXCL-12Emax (n = 2)” value was found to be 7%. Further, on MOR, the maximum response (Emax) came out at 0% and the “MOR Calcium % DAMGO Inhibition” value came out at 7%. For the same compound, on CaV 3.2, the “CaV 3.2 % CaCl2 Inhibition” value amounted to 2%. For the same compound, at DOR, the Emax is 0% and the “DOR Calcium % DPDPE Inhibition” value came to 3%.

As for `C=C1c2[nH]c3ccccc3c2CN2CC[C@@H]1/C(=C\C)C2` [WW-16, (4E,5R)-4-ethylidene-6-methylidene-1,3,4,5,6,7-hexahydro-2,5-ethanoazocino[4,3-b]indole], at ACKR3, the Emax came to 81 ± 5% and the EC50 worked out at 4.62 ± 0.41 µM. At KOR, the Emax stood at 2% and the “KOR Calcium % U69, 593 Inhibition” value was determined as 23%. Besides, the “CXCR4 β-arrestin % CXCL-12Emax (n = 2)” value at human CXCR4 was determined as 6%. At MOR, the Emax turned out to be 0% and the “MOR Calcium % DAMGO Inhibition” value was 15%. Also, the “CaV 3.2 % CaCl2 Inhibition” value on CaV 3.2 came out at 21%. On DOR, the maximal response (Emax) amounted to 0% and the “DOR Calcium % DPDPE Inhibition” value is recorded as 18%.

On to `CCOC(=O)C1CCN(Cc2c[nH]c3ccccc23)CC1` [WW-17, ethyl 1-(1H-indol-3-ylmethyl)piperidine-4-carboxylate], for which, at ACKR3, the Emax stood at 146 ± 6% and the midpoint of the response, the EC50, lay at 4.81 ± 0.45 µM. At KOR, the maximal response (Emax) stood at 1% and the “KOR Calcium % U69, 593 Inhibition” value worked out at 5%. The “CXCR4 β-arrestin % CXCL-12Emax (n = 2)” value on human CXCR4 came to 7%. Further, at MOR, the Emax was 1% and the “MOR Calcium % DAMGO Inhibition” value is 4%. The “CaV 3.2 % CaCl2 Inhibition” value on CaV 3.2 is −11%. On DOR, the maximal response (Emax) came out at 0% and the “DOR Calcium % DPDPE Inhibition” value stood at 11%.

Turning to `O=C(c1cc2ccccc2[nH]1)C1CCN(Cc2ccccc2)CC1` [WW-18, (1-Benzylpiperidin-4-yl)(1H-indol-2-yl)methanone], on ACKR3, the concentration giving a half-maximal response (EC50) is more than 10 µM. In addition, at KOR, the Emax worked out at 0% and the “KOR Calcium % U69, 593 Inhibition” value stood at 8%. For the same compound, on human CXCR4, the “CXCR4 β-arrestin % CXCL-12Emax (n = 2)” value is given as 8%. At MOR, the maximum response (Emax) amounted to 0% and the “MOR Calcium % DAMGO Inhibition” value was 2%. For the same compound, on CaV 3.2, the “CaV 3.2 % CaCl2 Inhibition” value is on record as −2%. In addition, at DOR, the Emax worked out at 0% and the “DOR Calcium % DPDPE Inhibition” value is listed as 6%.

The term Emax denotes the size of the effect at its maximum, as opposed to the concentration needed. As usually defined, the EC50 is the concentration that produces a half-maximal response.
